Measurements reported in PMC4128710 (Biochemical pharmacology, 2014).

How the values were obtained:
A1 and A3 ARs = test: Inhibition of forskolin-stimulated cAMP accumulation
A2BAR [1] = target: T1, A2BAR (Homo sapiens, UniProt P29275); test: cAMP accumulation in HEK293 cells overexpressing the A2BAR; conditions: HEK293 cells overexpressing A2BAR
T1 sequence (P29275 1-332): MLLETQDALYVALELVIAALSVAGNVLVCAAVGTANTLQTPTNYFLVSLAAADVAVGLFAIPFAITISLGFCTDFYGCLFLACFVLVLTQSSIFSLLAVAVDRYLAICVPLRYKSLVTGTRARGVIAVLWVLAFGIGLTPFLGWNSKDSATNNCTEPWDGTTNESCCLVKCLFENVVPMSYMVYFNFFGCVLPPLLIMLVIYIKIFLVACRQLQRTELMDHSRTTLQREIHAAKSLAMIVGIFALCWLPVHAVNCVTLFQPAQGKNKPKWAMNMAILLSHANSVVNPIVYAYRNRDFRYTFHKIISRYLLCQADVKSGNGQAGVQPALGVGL

A2BAR [2] = target: T1, A2BAR; test: cAMP accumulation in T24 cells endogenously expressing the A2BAR
A2BAR [3] = target: T1, A2BAR; test: cAMP accumulation in HEK293 cells endogenously expressing the A2BAR; conditions: HEK293 cells, endogenous A2BAR
A2BAR [4] = target: T1, A2BAR; test: ERK1/2 phosphorylation in T24 cells; conditions: T24 cells
A2BAR [5] = target: T1, A2BAR; test: ERK1/2 phosphorylation in HEK293 cells; conditions: HEK293 cells, endogenous A2BAR
A2BAR [6] = target: T1, A2BAR; test: Intracellular calcium mobilization in T24 cells; conditions: T24 cells
A2BAR [7] = target: T1, A2BAR; test: ERK1/2 phosphorylation in HEK293 cells overexpressing the A2BAR; conditions: HEK293 cells overexpressing A2BAR
mouse A2BAR = target: T2, mouse A2BAR (Mus musculus, UniProt Q60614); test: β-Arrestin2 translocation in PathHunter CHO cells; conditions: PathHunter CHO cells, mouse A2BAR
T2 sequence (Q60614 1-332): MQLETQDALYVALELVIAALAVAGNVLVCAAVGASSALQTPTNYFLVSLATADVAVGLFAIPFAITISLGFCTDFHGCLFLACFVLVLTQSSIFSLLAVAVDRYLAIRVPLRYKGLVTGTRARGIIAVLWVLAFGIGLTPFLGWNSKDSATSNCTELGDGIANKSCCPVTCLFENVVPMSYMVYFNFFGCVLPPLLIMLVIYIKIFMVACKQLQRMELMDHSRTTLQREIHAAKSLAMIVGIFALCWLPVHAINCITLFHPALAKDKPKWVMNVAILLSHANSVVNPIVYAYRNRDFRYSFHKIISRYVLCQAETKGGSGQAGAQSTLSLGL

A2BAR [8] = target: T1, A2BAR; test: Intracellular calcium mobilization in HEK293 cells; conditions: HEK293 cells, endogenous A2BAR
A2BAR [9] = target: T1, A2BAR; test: Intracellular calcium mobilization in HEK293 cells overexpressing the A2BAR; conditions: HEK293 cells overexpressing A2BAR

In the case of `OC[C@H]1O[C@@H](n2cnc3c(NC4CCCC4)ncnc32)[C@H](O)[C@@H]1O` [CPA, N^6-cyclopentyladenosine], the “inhibition of forskolin-stimulated cAMP accumulation” value (A1 and A3 ARs) is reported as “inactive”.

`Nc1ncnc2c1ncn2[C@@H]1O[C@H](C(=O)NC2CC2)[C@@H](O)[C@H]1O` [CPCA, adenosine-5′-N-cyclopropyluronamide] was tested, and the “Max effect cAMP (% of effect of NECA)” value (A2BAR [1]) was 98.9 ±6.6%, the EC50 (A2BAR [1]; read-out: EC50 cAMP) was 32.8 ± 4.2 nM and the “Max effect cAMP (% of effect of NECA)” value (A2BAR [2]; T24 cells, NECA = 100%) was 98.5 ±1.9%. The EC50 (A2BAR [2]; read-out: EC50 cAMP, T24 cells) was 0.177 ± 0.067 µM, the “Max effect cAMP (% of effect of NECA)” value (A2BAR [3]) was 102 ±9% and the EC50 (A2BAR [3]; read-out: EC50 cAMP) was 267 ± 32 nM. The “ERK1/2 stimulation relative to basal value” (A2BAR [4]) was ≤ 2 fold, the “Max effect ERK1/2 (% of effect of NECA)” value (A2BAR [4]) was 101 ±8% and the EC50 (A2BAR [4]; read-out: EC50 ERK1/2) was 369 ± 32 nM. For the same compound, the “Max effect ERK1/2 (% of effect of NECA)” value (A2BAR [5]) was 99.3 ±2.4%, the EC50 (A2BAR [5]; read-out: EC50 ERK1/2) was 1030 ± 230 nM and the “Max effect Calcium (% of effect of NECA)” value (A2BAR [6]) was 101 ±7%. The EC50 (A2BAR [6]; read-out: EC50 Calcium) was 1930 ± 680 nM, the “Max effect ERK1/2 (% of effect of NECA)” value (A2BAR [7]) was 100 ±6% and the EC50 (A2BAR [7]; read-out: EC50 ERK1/2) was 1860 ± 240 nM. For the same compound, the “Max effect β-arrestin (% of effect of NECA)” value (mouse A2BAR) was 109 ±9%, the EC50 (mouse A2BAR; read-out: EC50 β-arrestin) was 5.06 ± 1.41 µM and the “Max effect Calcium (% of effect of NECA)” value (A2BAR [8]) was 98.7 ±6.6%. The EC50 (A2BAR [8]; read-out: EC50 Calcium) was 2620 ± 460 nM, the “Max effect Calcium (% of effect of NECA)” value (A2BAR [9]) was 102 ±4% and the EC50 (A2BAR [9]; read-out: EC50 Calcium) was 1490 ± 360 nM.

`Nc1nc(Nc2ccccc2)nc2c1ncn2[C@@H]1O[C@H](CO)[C@@H](O)[C@H]1O` [CV1808, 2-phenylaminoadenosine] gave an EC50 (A2BAR [2]) of 9.1 ± 5.8 µM.

`CNC(=O)[C@H]1O[C@@H](n2cnc3c(NCc4cccc(I)c4)nc(Cl)nc32)[C@H](O)[C@@H]1O` [Cl-IB-MECA] was tested, and the “inhibition of forskolin-stimulated cAMP accumulation” value (A1 and A3 ARs) was “inactive”.

`N#Cc1c(N)nc(SCc2ncc[nH]2)c(C#N)c1-c1ccccc1` [LUF5833, 2-aminophenyl-6-(1H-imidazol-2-ylmethylsulfanyl)pyridine-3,5-dicarbonitrile] was tested, and the “Max effect β-arrestin (% of effect of NECA)” value (mouse A2BAR) was 9.7 ±0.6%.
